# Reference: US9216964B2, “Hedgehog pathway modulators” (Novartis AG, priority 2008, dated 2015)
# System: hedgehog signaling pathway
# Assay: Gli-Luc Reporter Assay for Hh Pathway Inhibition (TMHh-12 cells, pTA-8×Gli-Luc reporter)
# Type: cell-based, Mouse
# Settings: Mus musculus, TMHh12, Ag1.5 1 nM; read-out: Hedgehog Inhibition IC50 (nM) (Ag1.5 1 nM)
# Outline: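 Mouse TM3 cells stably carrying an 8×Gli-firefly luciferase reporter, in 2% FBS medium; pathway activated with recombinant mouse Shh (8 μg/mL) or Smo agonist, compounds added at varying concentrations for 48 h. Luminescence read; IC50 at 50% signal reduction. Toxicity checked in TM3 cells (CellTiter-Glo) or constitutive-luciferase TM3-Luc cells.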
row,SMILES,IC50
1,COc1ccc(-c2cc(Nc3cccc4c3CCN(C3CS(=O)(=O)C3)C4)ccc2C)nn1 [Compound 276],9.8 nM

# Same assay, conditions: Mus musculus, TMHh12, enzymatic and cellular assays for the inhibition of hedgehog signaling pathways; read-out: IC50 Ranges
row,SMILES,IC50
1,Cc1ccc(Nc2cccc3c2CCN(CCS(C)(=O)=O)C3)cc1-c1ccc(F)cn1 [Compound 232],1 to 10 nM
2,Cc1ccc(-c2cc(Nc3cccc4c3CCN(CC(=O)N(C)C)C4)ccc2C)nc1 [Compound 233],1 to 10 nM
3,Cc1ccc(Nc2cccc3c2CCN(C2CCS(=O)(=O)CC2)C3)cc1-c1ccc(F)cn1 [Compound 234],0.001 to 1 nM
4,Cc1ccc(-c2cc(Nc3cccc4c3CCN(C3CCS(=O)(=O)CC3)C4)ccc2C)nc1 [Compound 235],0.001 to 1 nM
5,Cc1ccc(-c2cc(Nc3nccc4c3CCN(S(C)(=O)=O)C4)ccc2C)nc1 [Compound 236],10 to 100 nM
6,Cc1ccc(Nc2cccc3c2CCN(S(C)(=O)=O)C3)cc1COc1ccccn1 [Compound 237],100 to 1000 nM
7,COc1ccnc(-c2cc(Nc3cccc4c3CCN(S(C)(=O)=O)C4)ccc2C)n1 [Compound 239],10 to 100 nM
8,Cc1cnc(-c2cc(Nc3cccc4c3CCN(S(C)(=O)=O)C4)ccc2C)cc1C [Compound 241],0.001 to 1 nM
9,Cc1ccc(Nc2nccc3c2CCN(S(C)(=O)=O)C3)cc1-c1ccc(F)cn1 [Compound 244],100 to 1000 nM
10,Cc1ccc(Nc2cccc3c2CCN(CCS(C)(=O)=O)C3)cc1-c1ccc(C#N)cn1 [Compound 245],1 to 10 nM
11,Cc1ccc(Nc2cccc3c2CCN(CCS(C)(=O)=O)C3)cc1C(=O)Nc1ccccc1 [Compound 246],10 to 100 nM
12,Cc1ccc(Nc2nccc3c2CCN(S(C)(=O)=O)C3)cc1C(=O)Nc1ccccc1 [Compound 247],10 to 100 nM
13,Cc1ccc(-c2cc(Nc3ncnc4c3CCN(S(C)(=O)=O)C4)ccc2C)nc1 [Compound 248],1 to 10 nM
14,Cc1ccc(Nc2cccc3c2CCN(C2CCS(=O)(=O)C2)C3)cc1-c1ccc(F)cn1 (stereo not drawn) [Compound 250],0.001 to 1 nM
15,Cc1ccc(-c2cc(Nc3cccc4c3CCN(CCC(F)(F)F)C4)ccc2C)nc1 [Compound 251],0.001 to 1 nM
16,Cc1ccc(Nc2cccc3c2CCN(CCC(F)(F)F)C3)cc1-c1ccc(F)cn1 [Compound 252],0.001 to 1 nM
17,Cc1ccc(Nc2cccc3c2CCN(S(C)(=O)=O)C3)cc1-c1cnc(N(C)C)cn1 [Compound 253],1 to 10 nM
18,Cc1ccc(Nc2cccc3c2CCN(S(C)(=O)=O)C3)cc1-c1ccc(N(C)C)nn1 [Compound 254],1 to 10 nM
19,COc1cncc(-c2cc(Nc3cccc4c3CCN(S(C)(=O)=O)C4)ccc2C)n1 [Compound 255],100 to 1000 nM
20,COc1ccc(-c2cc(Nc3cccc4c3CCN(C3CCS(=O)(=O)C3)C4)ccc2C)nn1 (stereo not drawn) [Compound 256],0.001 to 1 nM
21,Cc1ccc(Nc2cccc3c2CCN(CCS(C)(=O)=O)C3)cc1-c1ccc(Cl)cn1 [Compound 257],0.001 to 1 nM
22,COc1ccc(-c2cc(Nc3cccc4c3CCN(CCS(C)(=O)=O)C4)ccc2C)nn1 [Compound 258],1 to 10 nM
23,Cc1ccc(Nc2cccc3c2CCN(CCS(C)(=O)=O)C3)cc1-c1ccc(C(F)(F)F)cn1 [Compound 259],1 to 10 nM
24,Cc1ccc(Nc2cccc3c2CCN(CCS(C)(=O)=O)C3)cc1-c1ncccc1F [Compound 260],1 to 10 nM
25,CCS(=O)(=O)CCN1CCc2c(cccc2Nc2ccc(C)c(-c3ccc(C)cn3)c2)C1 [Compound 261],0.001 to 1 nM
26,Cc1ccc(Nc2cccc3c2CCN(CCS(C)(=O)=O)C3)cc1-c1ccccn1 [Compound 262],1 to 10 nM

row,SMILES,IC50
1,Cc1cnc(-c2cc(Nc3cccc4c3CCN(CCS(C)(=O)=O)C4)ccc2C)nc1 [Compound 263],100 to 1000 nM
2,COc1cnc(-c2cc(Nc3cccc4c3CCN(CCS(C)(=O)=O)C4)ccc2C)cn1 [Compound 264],1 to 10 nM
3,Cc1ccc(Nc2cccc3c2CCN(C2CCS(=O)(=O)C2)C3)cc1-c1ccccn1 (stereo not drawn) [Compound 265],0.001 to 1 nM
4,COc1cnc(-c2cc(Nc3cccc4c3CCN(C3CCS(=O)(=O)C3)C4)ccc2C)cn1 (stereo not drawn) [Compound 266],1 to 10 nM
5,Cc1cnc(-c2cc(Nc3cccc4c3CCN(C3CCS(=O)(=O)C3)C4)ccc2C)nc1 (stereo not drawn) [Compound 267],10 to 100 nM
6,Cc1ccc(Nc2cccc3c2CCN(C2CCS(=O)(=O)C2)C3)cc1-c1ncccc1F (stereo not drawn) [Compound 268],0.001 to 1 nM
7,Cc1ccc(Nc2cccc3c2CCN(C2CCS(=O)(=O)CC2)C3)cc1-c1ncccc1F [Compound 269],0.001 to 1 nM
8,COc1cnnc(-c2cc(Nc3cccc4c3CCN(S(C)(=O)=O)C4)ccc2C)c1 [Compound 270],10 to 100 nM
9,CCOc1ccc(-c2cc(Nc3cccc4c3CCN(S(C)(=O)=O)C4)ccc2C)nn1 [Compound 271],0.001 to 1 nM
10,Cc1ccc(Nc2cccc3c2CCN(S(C)(=O)=O)C3)cc1-c1ncc(F)cc1F [Compound 272],1 to 10 nM
11,Cc1ccc(-c2nc(Nc3cccc4c3CCN(S(C)(=O)=O)C4)ccc2Cl)nc1 [Compound 273],0.001 to 1 nM
12,Cc1ccc(-c2nc(Nc3cccc4c3CCN(S(C)(=O)=O)C4)ccc2C)nc1 [Compound 274],0.001 to 1 nM
13,Cc1ccc(Nc2cccc3c2CCN(C2CS(=O)(=O)C2)C3)cc1-c1ncccc1F [Compound 275],1 to 10 nM
14,COc1ccc(-c2cc(Nc3cccc4c3CCN(C3CS(=O)(=O)C3)C4)ccc2C)nn1 [Compound 276],1 to 10 nM
15,Cc1ccc(-c2cc(Nc3ncnc4c3CCN(C3CCS(=O)(=O)CC3)C4)ccc2C)nc1 [Compound 277],10 to 100 nM
16,Cc1ccc(-c2nc(Nc3cccc4c3CCN(CCS(C)(=O)=O)C4)ccc2Cl)nc1 [Compound 278],1 to 10 nM
17,Cc1ccc(-c2cc(Nc3cccc4c3CCN([C@@H]3CCS(=O)(=O)C3)C4)ccc2C)nc1 [Compound 279],0.001 to 1 nM
18,Cc1ccc(-c2cc(Nc3cccc4c3CCN([C@H]3CCS(=O)(=O)C3)C4)ccc2C)nc1 [Compound 280],0.001 to 1 nM
19,CCS(=O)(=O)CCN1CCc2c(cccc2Nc2ccc(C)c(-c3ccc(F)cn3)c2)C1 [Compound 281],1 to 10 nM
20,CCS(=O)(=O)CCN1CCc2c(cccc2Nc2ccc(C)c(-c3ccc(OC)nn3)c2)C1 [Compound 282],1 to 10 nM
21,CCS(=O)(=O)CCN1CCc2c(cccc2Nc2ccc(C)c(-c3ncccc3F)c2)C1 [Compound 283],1 to 10 nM
22,Cc1ccc(-c2nc(Nc3cccc4c3CCN(C3CS(=O)(=O)C3)C4)ccc2C)nc1 [Compound 285],10 to 100 nM
23,Cc1ccc(Nc2cccc3c2CCN([C@H]2CCS(=O)(=O)C2)C3)cc1-c1ncccc1F [Compound 286],0.001 to 1 nM
24,Cc1ccc(-c2cc(Nc3ncnc4c3CCN(C3CS(=O)(=O)C3)C4)ccc2C)nc1 [Compound 288],10 to 100 nM
25,Cc1ccc(Nc2cccc3c2CCN(S(=O)(=O)CCN(C)C)C3)cc1-c1ncccc1F [Compound 289],0.001 to 1 nM
26,Cc1ccc(Nc2cccc3c2CCN(S(C)(=O)=O)C3)cc1-c1ncc(Cl)cc1F [Compound 290],0.001 to 1 nM

row,SMILES,IC50
1,Cc1ccc(Nc2cccc3c2CCN(S(C)(=O)=O)C3)cc1-c1ccc(N(C)C)cn1 [Compound 291],0.001 to 1 nM
2,Cc1ccc(-c2cc(Nc3ncnc4c3CCN(S(=O)(=O)C(C)C)C4)ccc2C)nc1 [Compound 292],1 to 10 nM
3,CCS(=O)(=O)N1CCc2c(ncnc2Nc2ccc(C)c(-c3ccc(C)cn3)c2)C1 [Compound 293],0.001 to 1 nM
4,CCOc1ccc(-c2cc(Nc3cccc4c3CCN(CCS(C)(=O)=O)C4)ccc2C)nn1 [Compound 294],1 to 10 nM
5,CCOc1ccc(-c2cc(Nc3cccc4c3CCN(C3CS(=O)(=O)C3)C4)ccc2C)nn1 [Compound 295],1 to 10 nM
6,CCOc1ccc(-c2cc(Nc3cccc4c3CCN(C3CCS(=O)(=O)C3)C4)ccc2C)nn1 (stereo not drawn) [Compound 296],1 to 10 nM
7,CCOc1ccc(-c2cc(Nc3cccc4c3CCN(CCS(=O)(=O)CC)C4)ccc2C)nn1 [Compound 297],1 to 10 nM
8,Cc1ccc(Nc2ncnc3c2CCN(S(C)(=O)=O)C3)cc1-c1ccc(F)cn1 [Compound 298],10 to 100 nM
9,CCS(=O)(=O)N1CCc2c(ncnc2Nc2ccc(C)c(-c3ccc(F)cn3)c2)C1 [Compound 299],0.001 to 1 nM
10,Cc1ccc(Nc2ncnc3c2CCN(S(=O)(=O)C(C)C)C3)cc1-c1ccc(F)cn1 [Compound 300],0.001 to 1 nM
11,Cc1ccc(Nc2ncnc3c2CCN(S(C)(=O)=O)C3)cc1C(=O)Nc1ccccc1 [Compound 301],100 to 1000 nM
12,CS(=O)(=O)CCN1CCc2c(cccc2Nc2ccc(Cl)c(-c3ccc(F)cn3)n2)C1 [Compound 302],10 to 100 nM
13,CS(=O)(=O)N1CCc2c(cccc2Nc2ccc(Cl)c(-c3ccc(F)cn3)n2)C1 [Compound 303],1 to 10 nM
14,Cc1ccc(Nc2ncnc3c2CCN(C2CS(=O)(=O)C2)C3)cc1-c1cc2ccccc2cn1 [Compound 304],10 to 100 nM
15,Cc1ccc(Nc2ncnc3c2CCN(CCS(C)(=O)=O)C3)cc1-c1cc2ccccc2cn1 [Compound 305],10 to 100 nM
16,COc1ccc(-c2cc(Nc3cccc4c3CCN(C3CCS(=O)(=O)CC3)C4)ccc2C)nn1 [Compound 306],1 to 10 nM
17,Cc1ccc(Nc2ncnc3c2CCN(S(C)(=O)=O)C3)cc1-c1cc2ccccc2cn1 [Compound 307],0.001 to 1 nM
18,CCOc1cnc(-c2cc(Nc3cccc4c3CCN(C3CCS(=O)(=O)C3)C4)ccc2C)cn1 (stereo not drawn) [Compound 308],1 to 10 nM
19,Cc1ccc(-c2nc(Nc3cccc4c3CCN(CCS(C)(=O)=O)C4)ccc2C)nc1 [Compound 309],10 to 100 nM
20,CCOc1cnc(-c2cc(Nc3cccc4c3CCN(CCS(C)(=O)=O)C4)ccc2C)cn1 [Compound 310],1 to 10 nM
21,Cc1ccc(Nc2cccc3c2CCN(CCS(C)(=O)=O)C3)nc1-c1ccccn1 [Compound 311],10 to 100 nM
22,Cc1ccc(Nc2cccc3c2CCN(S(C)(=O)=O)C3)nc1-c1ccccn1 [Compound 312],1 to 10 nM
23,CCOc1cnc(-c2cc(Nc3cccc4c3CCN(C3CS(=O)(=O)C3)C4)ccc2C)cn1 [Compound 313],1 to 10 nM
24,CCOc1cnc(-c2cc(Nc3cccc4c3CCN(S(C)(=O)=O)C4)ccc2C)cn1 [Compound 314],0.001 to 1 nM

# Same assay, conditions: enzymatic and cellular assays for the inhibition of hedgehog signaling pathways; read-out: IC50 Ranges
row,SMILES,IC50
1,Cc1ccc(Nc2cccc3c2CCN([C@@H]2CCS(=O)(=O)C2)C3)cc1-c1ncccc1F [Compound 287],1 to 10 nM
